From patent US4304778A, “4-Aminoquinazoline derivatives having fungicidal, anti-insect and acaricidal properties” (Sankyo Company Limited, priority 1978, dated 1981)

Experiments:
[1] = tested on: Piricularia oryzae; format: in vivo; conditions: rice blast; 500 ppm spray; mean, upper two leaves
[2] = tested on: final instar larvae of the diamondback moth (Plutella xylostella); experiment: Repellent and emergence-inhibition effect on the final instar larvae of diamondback moths; format: in vivo; set-up: key to Extent of ingestion: -: no ingestion; ±: very little ingestion; +: some ingestion; ++: considerable ingestion; conditions: 72 hours; for pest or weed control at 500 ppm: Plutella xylostella, read-out: Emergence-inhibition rate (%); for Extent of ingestion: radish leaves dipped in 500 ppm
Text: (§1) In the following Examples, wettable powders prepared according to the procedures of Example 4 were used, each powder containing 50% by weight of the active compound of this invention.
Leaves of the Japanese radish (Raphanus sativus) were dipped for 30 seconds into a liquid containing 500 ppm of one of the compounds shown in Table 9. After air-drying the leaves, each leaf was placed into a plastic icecream cup (diameter 8 cm) and 15 final instar larvae of the diamondback moth (Plutella xylostella) were placed into each cup. Each test was conducted in duplicate and the results were averaged.

[3] = tested on: third instar larvae of the tobacco cutworm; experiment: Repellent action against the third instar larvae of the tobacco cutworm; format: in vivo; set-up: key: -: no ingestion; ±: very little ingestion; +: some ingestion; ++: considerable ingestion; conditions: cabbage leaves dipped in 500 ppm, 72 hours
Text: as §1
Cabbage leaves were dipped for 30 seconds in an aqueous suspension containing 500 ppm of one of the active compounds shown in Table 6. After air-drying, each leaf was placed into a plastic receptacle having a diameter of 8 cm and the third instar larvae (10 per receptacle) of the tobacco cutworm were released onto the leaves. After 72 hours, the extent of ingestion of the leaves was measured, using two receptacles for each test compound. The results are shown in Table 6, using the following notation (which is also employed, with the same meaning, in following Table 9): […]

[4] = tested on: cockroach larvae; conditions: 24 hours; 25° C.
[5] = tested on: Sphaerotheca fuliginea; experiment: Effect on powdery mildew in cucumbers; format: in vivo; conditions: cucumber powdery mildew; 500 ppm; 10 days
Experimental: as §1
Cucumber seedlings (variety Sagamihanshiro), planted two per 12 cm diameter pot, were used as host plants at the stage when the first leaf was fully grown and open. Each test group of three pots was treated with one of the active compounds shown in Table 5 by spraying an aqueous suspension containing 500 ppm of the active compound onto the plants at the rate of 20 ml per 3 pots. After air-drying the plants, the host plants were inoculated with the microorganism Sphaerotheca fuliginea by brushing already infected cucumber leaves with a small brush and letting the microorganism fall onto the host plants. The inoculated plants were kept in a greenhouse at 24°-26° C. for 10 days. At the end of this time, the percentage diseased area was measured.

[6] = tested on: Phytophthora infestans; format: in vivo; conditions: tomato late blight; 500 ppm; after 5 days; average per leaf
[7] = tested on: Colletotrichum lagenarium; experiment: Effect on anthracnose in cucumbers; format: in vivo; conditions: cucumber anthracnose; 500 ppm; seven days; cotyledon and first leaf
Experimental: as §1
Groups of cucumber plants (variety Sagamihanshiro) were planted, two per pot, in a series of Wagner pots (diameter 12 cm) and were used as host plants when the first leaf was fully grown and open. Each test group of three pots was treated with one of the active compounds shown in Table 4 by spraying an aqueous suspension containing 500 ppm of the active compound onto the plants at the rate of 30 ml per 3 pots. After air-drying the plants, a spore suspension of the pathogenic microorganism Colletotrichum lagenarium was sprayed onto the plants and the plants were kept in a wet room for 24 hours at 20°-22° C. and 100% relative humidity. The pots were then placed in a greenhouse at 26° C. and, seven days after the spore suspension had been sprayed on, the percentage diseased area of the cotyledon and the first leaf was calculated.

[8] = tested on: Alternalia solani; experiment: Effect on early blight in tomatoes; format: in vivo; conditions: tomato early blight; 500 ppm; 3 days in greenhouse
Experimental: as §1
Groups of tomato plants (variety Shinfukuju) were planted, two per pot, in a series of Wagner pots (diameter 12 cm) and used for the following test when at the 5 to 6 leaf stage. Each pot was treated with 30 ml of an aqueous suspension containing 500 ppm of one of the active compounds shown in Table 3, applied to the plants by spraying over their stems and leaves. After air-drying the plants, a spore suspension of the pathogenic microorganism Alternalia solani was sprayed over each plant, and the plants were kept in a wet room for 24 hours at 20°-22° C. and 100% relative humidity. The pots were then placed in a greenhouse for 3 days. All leaves were then examined for signs of the disease and the number of disease spots per leaf was calculated, using three pots for each compound.

[9] = tested on: guppies; experiment: Toxicity to guppies; format: in vivo; conditions: LC50 after 48 hours classified
Experimental: In this example the toxicity of the compounds of the invention towards guppies was estimated and is compared with that of corresponding compounds as disclosed and claimed in our co-pending U.S. Application No. 910,117 filed May 30, 1978. The LC50 was determined after 48 hours and the toxicity to guppies was classified into the rankings (i), (ii) and (iii) according to the following classification scheme: […]

Row | SMILES | No. of disease spots per leaf [1] [spots per leaf] | pest or weed control at 500 ppm [2] [%] | Extent of ingestion [2] | Extent of ingestion [3] | Mortality rate (%), 0.5mg test cpd/10 cockroaches/bottle [4] [%] | Mortality rate (%), 1mg test cpd/10 cockroaches/bottle [4] [%] | Diseased area (%) [5] [%] | Diseased area (%) [6] [%] | Diseased area (%) [7] [%] | No. of disease spots per leaf [8] [spots per leaf] | Toxicity ranking [9]
1 | CCCCCCN(CCOc1ccccc1C(C)C)c1ncnc2ccccc12 [compound 44, 4-{N-hexyl-N-[2-(2-isopropylphenoxy)ethyl]amino}quinazoline] | 3.1 | – | – | – | – | – | – | – | – | – | –
2 | CCN(CCOc1cc(C(C)C)ccc1C)c1ncnc2ccccc12 [compound 47, 4-{N-ethyl-N-[2-(5-isopropyl-2-methylphenoxy)ethyl]amino}quinazoline] | – | 90 | ± | ± to + | 85 | 100 | 0 | – | – | – | –
3 | C=CCN(CCOc1ccccc1C(C)C)c1ncnc2ccccc12 [compound 25, 4-{N-allyl-N-[2-(2-isopropylphenoxy)ethyl]amino}quinazoline] | – | – | – | – | 85 | 100 | 0 | 0 | 8 | 15 | –
4 | C=CCN(CCOc1ccc(C)cc1C)c1ncnc2ccccc12 [compound 26, 4-{N-allyl-N-[2-(2,4-dimethylphenoxy)ethyl]amino}quinazoline] | – | 80 | ± to + | ± to + | 90 | 100 | 0 | 3 | 0 | – | –
5 | CC(C)c1ccccc1OCCN(c1ncnc2ccccc12)C1CCCCC1 [compound 31, 4-{N-cyclohexyl-N-[2-(2-isopropylphenoxy)ethyl]amino}quinazoline] | – | – | – | – | – | – | – | – | – | 13 | –
6 | CCN(CCOc1ccccc1C)c1ncnc2ccccc12 [Compound No. 2, 4-{N-ethyl-N-[2-(2-methylphenoxy)ethyl]amino}quinazoline] | – | – | – | – | 90 | 100 | 0 | 3 | 0 | 16 | ii (all fish dead at 10 ppm but alive at 0.5 ppm)
7 | C=C(C)CN(CCOc1ccccc1C(C)C)c1ncnc2ccccc12 [compound 52, 4-{N-[2-(2-isopropylphenoxy)ethyl]-N-(2-methylallyl)amino}quinazoline] | – | – | – | – | – | – | 0 | 13 | 8 | – | i (all fish alive at 10 ppm)
8 | C=CCN(CCOc1ccc(Cl)cc1C)c1ncnc2ccccc12 [compound 43, 4-{N-allyl-N-[2-(4-chloro-2-methylphenoxy)ethyl]amino}quinazoline] | – | 70 | ± | + | 90 | 100 | 0 | 11 | – | – | –
9 | Cc1ccc(OCCN(C)c2ncnc3ccccc23)cc1 [compound 18, 4-{N-methyl-N-[2-(4-methylphenoxy)ethyl]amino}quinazoline] | 2.6 | – | – | – | 90 | 100 | 8 | 16 | – | – | –
10 | CCN(CCOc1ccc(Cl)cc1C)c1ncnc2ccccc12 [compound 38, 4-{N-[2-(4-chloro-2-methylphenoxy)ethyl]-N-ethylamino}quinazoline] | – | 100 | - to ± | ± | 90 | 100 | 0 | 13 | – | – | –
11 | CCCCCCCCc1ccc(C)c(OCCN(C)c2ncnc3ccccc23)c1 [compound 56, 4-{N-methyl-N-[2-(2-methyl-5-octylphenoxy)ethyl]amino}quinazoline] | 3.2 | – | – | – | – | – | – | – | – | – | –
12 | Cc1ccccc1OCCN(c1ncnc2ccccc12)C1CCCCC1 [compound 9, 4-{N-cyclohexyl-N-[2-(2-methylphenoxy)ethyl]amino}quinazoline] | – | – | – | – | – | – | – | 13 | – | 15 | –
13 | CN(CCOCc1ccc(Cl)cc1)c1ncnc2ccccc12 [compound 14, 4-{N-[2-(4-chlorobenzyloxy)ethyl]-N-methylamino}quinazoline] | 1.5 | – | – | – | – | – | – | – | – | – | –
14 | CC=CCN(CCOc1ccccc1C(C)C)c1ncnc2ccccc12 [compound 51, 4-{N-(2-butenyl)-N-[2-(2-isopropylphenoxy)ethyl]amino}quinazoline] | – | – | – | – | – | – | 0 | 0 | 0 | 4 | –
15 | Cc1ccc(OCCN(c2ncnc3ccccc23)C(C)C)c(C)c1 [compound 34, 4-{N-[2-(2,4-dimethylphenoxy)ethyl]-N-isopropylamino}quinazoline] | – | – | – | – | – | – | 10 | 0 | – | 15 | –
16 | Cc1ccccc1OCCN(C)c1ncnc2ccccc12 [Compound No. 1, 4-{N-methyl-N-[2-(2-methylphenoxy)ethyl]amino}-quinazoline] | – | – | – | – | – | – | 0 | 0 | 0 | 8 | ii (all fish dead at 10 ppm but alive at 0.5 ppm)
17 | CCCCN(CCOc1ccc(Cl)cc1C)c1ncnc2ccccc12 [compound 41, 4-{N-butyl-N-[2-(4-chloro-2-methylphenoxy)ethyl]amino}quinazoline] | – | 90 | ± | ± to + | 85 | 100 | – | – | – | – | –
18 | CCCCN(CCOc1ccccc1C)c1ncnc2ccccc12 [compound 10, 4-{N-butyl-N-[2-(2-methylphenoxy)ethyl]amino}quinazoline] | – | – | – | – | – | – | 0 | – | – | 4 | –
19 | CCN(CCOc1ccc(C)cc1C)c1ncnc2ccccc12 [compound 32, 4-{N-[2-(2,4-dimethylphenoxy)ethyl]-N-ethylamino}quinazoline] | – | – | – | – | 85 | 100 | 0 | 5 | 8 | – | –
20 | Cc1ccc(COCCN(C)c2ncnc3ccccc23)cc1 [compound 13, 4-{N-methyl-N-[2-(4-methylbenzyloxy)ethyl]amino}quinazoline] | 2.9 | – | – | – | 80 | 100 | – | – | – | – | –
